Molecules are shown by their SMILES. A value given as a limit tells only on which side of the number the result lay.

Chain of Sodium-dependent serotonin transporter (P31645 whole entry): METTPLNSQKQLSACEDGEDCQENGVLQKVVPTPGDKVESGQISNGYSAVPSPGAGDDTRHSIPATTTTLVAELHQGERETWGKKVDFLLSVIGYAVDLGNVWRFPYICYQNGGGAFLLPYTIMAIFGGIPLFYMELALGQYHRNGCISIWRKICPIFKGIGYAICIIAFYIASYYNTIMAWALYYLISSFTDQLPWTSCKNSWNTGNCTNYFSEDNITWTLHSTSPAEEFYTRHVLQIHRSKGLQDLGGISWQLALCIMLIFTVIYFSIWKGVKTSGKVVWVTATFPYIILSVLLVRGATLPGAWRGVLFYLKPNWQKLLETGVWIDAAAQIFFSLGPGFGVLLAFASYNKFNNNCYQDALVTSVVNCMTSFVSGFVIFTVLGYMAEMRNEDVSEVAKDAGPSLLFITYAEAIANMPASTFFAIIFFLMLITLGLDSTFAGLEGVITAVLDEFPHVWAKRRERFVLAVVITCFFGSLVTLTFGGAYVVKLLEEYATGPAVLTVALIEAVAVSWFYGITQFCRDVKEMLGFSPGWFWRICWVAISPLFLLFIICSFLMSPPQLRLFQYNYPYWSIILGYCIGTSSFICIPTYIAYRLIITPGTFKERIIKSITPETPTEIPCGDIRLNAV

In one assay the target is Sodium-dependent noradrenaline transporter (Homo sapiens, UniProt P23975). As to the kind of experiment: Displacement of [125I]nisoxetine from human NET transfected in human HEK293 cells. Format: cell-based. (Displacement assays read how much labelled ligand stays bound in the presence of the test substance.)
Chain of Sodium-dependent noradrenaline transporter (P23975 whole entry): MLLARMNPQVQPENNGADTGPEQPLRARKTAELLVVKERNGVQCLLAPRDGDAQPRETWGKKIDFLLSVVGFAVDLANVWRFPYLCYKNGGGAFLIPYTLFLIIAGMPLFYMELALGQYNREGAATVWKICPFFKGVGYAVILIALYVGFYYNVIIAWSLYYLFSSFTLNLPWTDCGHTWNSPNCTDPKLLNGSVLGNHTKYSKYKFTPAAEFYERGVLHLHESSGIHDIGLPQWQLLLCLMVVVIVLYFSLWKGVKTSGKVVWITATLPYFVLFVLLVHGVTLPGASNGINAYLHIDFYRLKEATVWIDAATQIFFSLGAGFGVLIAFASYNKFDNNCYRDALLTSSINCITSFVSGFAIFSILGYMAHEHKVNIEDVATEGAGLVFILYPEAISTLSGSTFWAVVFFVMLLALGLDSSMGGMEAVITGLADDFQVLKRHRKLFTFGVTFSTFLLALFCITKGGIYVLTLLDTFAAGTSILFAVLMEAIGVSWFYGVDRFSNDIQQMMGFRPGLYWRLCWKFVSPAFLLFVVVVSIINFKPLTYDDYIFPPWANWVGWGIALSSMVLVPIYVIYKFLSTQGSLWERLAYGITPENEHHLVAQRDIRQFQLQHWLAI
Turning to `CN1CCc2ccccc2C1CCc1c[nH]c2ccc(C#N)cc12` (single isomer, unassigned; (-)) [listing 1 of 2 here], the IC50 (commonly the concentration needed to halve the response being measured) is more than 10 µM.

The target of the next assay is Sodium-dependent dopamine transporter (Homo sapiens, UniProt Q01959). As to the kind of experiment: Displacement of [I125]RTI-55 from human DAT transfected in human HEK293 cells. Format: cell-based.
Chain of Sodium-dependent dopamine transporter (Q01959 whole entry): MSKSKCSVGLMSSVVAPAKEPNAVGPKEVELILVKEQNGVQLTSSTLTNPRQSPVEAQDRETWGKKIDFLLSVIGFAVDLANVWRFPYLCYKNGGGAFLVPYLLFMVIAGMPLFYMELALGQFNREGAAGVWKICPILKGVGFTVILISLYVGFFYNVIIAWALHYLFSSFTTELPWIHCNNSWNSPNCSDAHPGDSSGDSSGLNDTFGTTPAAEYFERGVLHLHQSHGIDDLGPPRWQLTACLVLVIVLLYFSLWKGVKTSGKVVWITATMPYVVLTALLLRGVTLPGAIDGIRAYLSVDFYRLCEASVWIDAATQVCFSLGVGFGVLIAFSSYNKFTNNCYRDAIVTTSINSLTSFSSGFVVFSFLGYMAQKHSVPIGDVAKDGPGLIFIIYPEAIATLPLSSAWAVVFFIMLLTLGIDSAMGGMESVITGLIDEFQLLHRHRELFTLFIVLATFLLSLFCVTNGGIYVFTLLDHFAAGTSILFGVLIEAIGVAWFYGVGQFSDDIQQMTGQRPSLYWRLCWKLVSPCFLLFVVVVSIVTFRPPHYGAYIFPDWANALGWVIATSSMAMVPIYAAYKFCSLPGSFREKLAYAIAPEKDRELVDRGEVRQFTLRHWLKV
`CN1CCc2ccccc2C1CCc1c[nH]c2ccc(C#N)cc12` (single isomer, unassigned; (-)) [listing 1 of 2 here] displayed an IC50 of 620 nM.

Another assay addresses Sodium-dependent serotonin transporter (Homo sapiens, UniProt P31645). As to the kind of experiment: Displacement of [I125]RTI-55 from human SERT transfected in human HEK293 cells. Format: cell-based.
As to `N#Cc1ccc2[nH]cc(CCC3CCCN3)c2c1` (configuration not stated), the IC50 was 17 nM.
Same read-out and setting: the figure for `N#Cc1ccc2[nH]cc(CCC3CCCCN3)c2c1` (configuration not stated) is 2.5 nM; for `CCN1CCCCC1CCc1c[nH]c2ccc(C#N)cc12` (configuration not stated) it is 4 nM; for `CN1CC[C@H](Cc2ccccc2)C[C@@H]1CCc1c[nH]c2ccc(C#N)cc12` it is 7.6 nM.
`CN1CCc2ccccc2C1CCc1c[nH]c2ccc(C#N)cc12` (single isomer, unassigned; (-)) [listing 1 of 2 here] gave an IC50 of 0.42 nM.
`CN1CCCCC1CCc1c[nH]c2ccc(C#N)cc12` (configuration not stated) registered an IC50 of 3.9 nM.
As for `CN1CCCC1CCc1c[nH]c2ccc(C#N)cc12` (configuration not stated), the IC50 was 8.1 nM.
On the same count and under the same terms, the value for `N#Cc1ccc2[nH]cc(CCC3CCCCN3Cc3ccccc3)c2c1` (configuration not stated) was 7 nM.
`CN1CCc2ccccc2C1CCc1c[nH]c2ccc(C#N)cc12` (single isomer, unassigned; (+)) registered an IC50 of 4.2 nM.
As for `CN1CCc2ccccc2C1CCc1c[nH]c2ccc(F)cc12` (configuration not stated), the IC50 was found to be 5.7 nM.
Still for that read-out and setting: the value for `N#Cc1ccc2[nH]cc(CCC3CCCCN3CCC(F)(F)F)c2c1` (configuration not stated) was 80 nM; that for `N#Cc1ccc2[nH]cc(CC[C@H]3C[C@@H](Cc4ccccc4)CCN3)c2c1` was 18 nM.
Compound `CN1CCc2ccccc2C1CCc1c[nH]c2ccc(C#N)cc12` (stereo in doubt; 21a) returned an IC50 of 1.1 nM.
`N#Cc1ccc2[nH]cc(CCC3CCCCN3Cc3cc(C(F)(F)F)cc(C(F)(F)F)c3)c2c1` (configuration not stated) gave an IC50 of 46 nM.
The same measure, in the same setting: the value for `CN1CCOCC1CCc1c[nH]c2ccc(C#N)cc12` (configuration not stated) was 76 nM; that for `COc1ccc2[nH]cc(CCC3c4ccccc4CCN3C)c2c1` (configuration not stated) was 120 nM; that for `CN1CCCCC1(C)CCc1c[nH]c2ccc(C#N)cc12` (configuration not stated) was 2.1 nM.
The compound `CC1(CCc2c[nH]c3ccc(C#N)cc23)CCCCN1` (configuration not stated) had an IC50 of 17 nM.

The species named for another assay is Homo sapiens. The experiment in a line: Selectivity ratio of IC50 for human NET to IC50 for human SERT.
For the compound `CN1CCc2ccccc2C1CCc1c[nH]c2ccc(C#N)cc12` (single isomer, unassigned; (-)) [listing 2 of 2 here], the Ratio IC50 is more than 20000.

The species named for a further assay is Homo sapiens. The experiment in a line: Selectivity ratio of IC50 for human DAT to IC50 for human SERT.
Consider `CN1CCc2ccccc2C1CCc1c[nH]c2ccc(C#N)cc12` (single isomer, unassigned; (-)) [listing 2 of 2 here], for which the Ratio IC50 came to 1500.

The values above are taken from ChEMBL document CHEMBL1159043, “Synthesis and hSERT activity of homotryptamine analogs. Part 6: [3+2] dipolar cycloaddition of 3-vinylindoles” (Bioorg Med Chem Lett, 2010).
